# In patent publication US10865216B2, “Tricyclic Gyrase inhibitors” (MERCK SHARP & DOHME CORP., priority 2012, dated 2020):
# What was measured:
# E. coli ATCC 25922 = assay: MIC, E. coli ATCC 25922; assay type: cell-based; conditions: E. coli; Alamar Blue read after overnight incubation at 35° C.
# S. aureus ATCC 13709 = assay: MIC, S. aureus ATCC 13709; assay type: cell-based; conditions: S. aureus; Alamar Blue read after overnight incubation at 35° C.
Structure (SMILES),MIC Ec (E. coli ATCC 25922) [µg/mL],MIC Sa (S. aureus ATCC 13709) [µg/mL]
CNc1cc(F)cc2c1[nH]c1nc(Oc3cncnc3)nc(N3CCC(C4(N)CC4)C3)c12 (centres unmarked) [Compound 4.017],≤0.5,≤0.5
CNc1cc(F)cc2c1[nH]c1nc(Oc3cncnc3)nc(N3CCCC(C)(N)C3)c12 (centres unmarked) [Compound 4.024],2,≤0.5
CNc1cc(F)cc2c1[nH]c1nc(Oc3cncnc3)nc(N3C4CCC3CC(N)C4)c12 (centres unmarked) [Compound 4.025],2,≤0.5
CNc1cc(F)cc2c1[nH]c1nc(Oc3cncnc3)nc(N3CCC(C4(N)CC4)C3)c12 (centres unmarked) [Compound 4.027],1,≤0.5
CNc1cc(F)cc2c1[nH]c1nc(Oc3cncnc3)nc(N3CC(N)CC3C)c12 (centres unmarked) [Compound 4.029],16,4
CNc1cc(F)cc2c1[nH]c1nc(Oc3cncnc3)ncc12 [Compound 4.031],>16,2
CNc1cc(F)cc2c1[nH]c1nc(Oc3cncnc3)nc(N3CCC4(CCNC4)C3)c12 (centres unmarked) [Compound 4.033],4,≤0.5
CNc1cc(F)cc2c1[nH]c1nc(Oc3cnc4cccnc4c3)nc(N3CC4CC4(N)C3)c12 (centres unmarked) [Compound 4.036],≤0.5,≤0.5
CNc1cc(F)cc2c1[nH]c1nc(Oc3cnc4cccnc4c3)nc(N3CC4C(N)C4C3)c12 (centres unmarked) [Compound 4.037],≤0.5,≤0.5
CNc1cc(F)cc2c1[nH]c1nc(Oc3cnc4cccnc4c3)nc(N3CC4(CC4N)C3)c12 (centres unmarked) [Compound 4.042],≤0.5,≤0.5
CNc1cc(F)cc2c1[nH]c1nc(Oc3cnc4cccnc4c3)nc(N3CC4CC(N)CC4C3)c12 (centres unmarked) [Compound 4.046],1,≤0.5
CNc1cc(F)cc2c1[nH]c1nc(Oc3cncc(C#N)c3)nc(N3CC4C(N)C4C3)c12 (centres unmarked) [Compound 4.050],≤0.5,≤0.5
CNc1cc(F)cc2c1[nH]c1nc(Oc3cncc(C#N)c3)nc(N3CC(N)C4(CC4)C3)c12 (centres unmarked) [Compound 4.051],2,≤0.5
CNc1cc(F)cc2c1[nH]c1nc(Oc3cncc(C#N)c3)nc(N3CCC4(CC4N)C3)c12 (centres unmarked) [Compound 4.052],≤0.5,≤0.5
CNc1cc(F)cc2c1[nH]c1nc(Oc3cncc(C#N)c3)nc(N3CC4CC(N)C4C3)c12 (centres unmarked) [Compound 4.053],≤0.5,≤0.5
CNc1cc(F)cc2c1[nH]c1nc(Oc3cncc(C#N)c3)nc(N3CC4(CCC4N)C3)c12 (centres unmarked) [Compound 4.054],≤0.5,≤0.5
CNc1cc(F)cc2c1[nH]c1nc(Oc3cncc(F)c3)nc(N3CC4C(N)C4C3)c12 (centres unmarked) [Compound 4.055],≤0.5,≤0.5
CNc1cc(F)cc2c1[nH]c1nc(Oc3cncc(F)c3)nc(N3CC(N)C4(CC4)C3)c12 (centres unmarked) [Compound 4.056],≤0.5,≤0.5
CNc1cc(F)cc2c1[nH]c1nc(Oc3cncc(F)c3)nc(N3CC(N)C4(CC4)C3)c12 (centres unmarked) [Compound 4.057],≤0.5,≤0.5
CNc1cc(F)cc2c1[nH]c1nc(Oc3cncc(F)c3)nc(N3CC4(CCC4N)C3)c12 (centres unmarked) [Compound 4.061],≤0.5,≤0.5
CNc1cc(F)cc2c1[nH]c1nc(Oc3cncc(F)c3)nc(N3CCC4(CC4N)C3)c12 (centres unmarked) [Compound 4.062],≤0.5,≤0.5
CNc1cc(F)cc2c1[nH]c1nc(Oc3cnc(C)nc3)nc(N3CC(N)C4(CC4)C3)c12 (centres unmarked) [Compound 4.065],≤0.5,≤0.5
CNc1cc(F)cc2c1[nH]c1nc(Oc3cnc(C)nc3)nc(N3CC(N)C4(CC4)C3)c12 (centres unmarked) [Compound 4.068],≤0.5,≤0.5
CNc1cc(F)cc2c1[nH]c1nc(Oc3cnc(C)nc3)nc(NCCCN)c12 [Compound 4.108],>16,4

# The remaining lines, values ahead:
MIC Ec (E. coli ATCC 25922) [µg/mL],MIC Sa (S. aureus ATCC 13709) [µg/mL],Structure (SMILES)
1,≤0.5,CNc1cc(F)cc2c1[nH]c1nc(Oc3cncnc3)nc(N3CC4CCC(N)C4C3)c12 (centres unmarked) [Compound 4.016]
≤0.5,≤0.5,CNc1cc(F)cc2c1[nH]c1nc(Oc3cncnc3)nc(N3CC4CCNC4C3)c12 (centres unmarked) [Compound 4.020]
1,≤0.5,CNc1cc(F)cc2c1[nH]c1nc(Oc3cncnc3)nc(N3CC(C)C(CN)C3)c12 (centres unmarked) [Compound 4.023]
≤0.5,≤0.5,CNc1cc(F)cc2c1[nH]c1nc(Oc3cncnc3)nc(N3CC4CCC(N)C4C3)c12 (centres unmarked) [Compound 4.026]
≤0.5,≤0.5,CNc1cc(F)cc2c1[nH]c1nc(Oc3cncnc3)nc(N3CC4C[C@@H](N)C4C3)c12 (some centres unmarked) [Compound 4.028]
≤0.5,≤0.5,CNc1cc(F)cc2c1[nH]c1nc(Oc3cnc4cccnc4c3)nc(N3CC4CCNC4C3)c12 (centres unmarked) [Compound 4.044]
1,≤0.5,CNc1cc(F)cc2c1[nH]c1nc(Oc3cnc4cccnc4c3)nc(N3CC4NCCOC4C3)c12 (centres unmarked) [Compound 4.048]
≤0.5,≤0.5,CNc1cc(F)cc2c1[nH]c1nc(Oc3cnc(C)nc3)nc(N3CC4CNC4C3)c12 (centres unmarked) [Compound 4.067]
2,≤0.5,CNc1cc(F)cc2c1[nH]c1nc(Oc3cnc(C)nc3)nc(N3CCCC(N)CC3)c12 (centres unmarked) [Compound 4.071]
8,≤0.5,CNc1cc(F)cc2c1[nH]c1nc(Oc3cnc(C)nc3)nc(N3CC4C(C3)C4NC(=O)CN)c12 (centres unmarked) [Compound 4.078]
1,≤0.5,CNc1cc(F)cc2c1[nH]c1nc(Oc3cnc(C)nc3)nc(N3CC(C4(N)CC4)C3)c12 [Compound 4.080]
≤0.5,≤0.5,CNc1cc(F)cc2c1[nH]c1nc(Oc3cnc(C)nc3)nc(N3CCC(C4(N)CC4)C3)c12 (centres unmarked) [Compound 4.083]
1,≤0.5,CNc1cc(F)cc2c1[nH]c1nc(Oc3cnc(C)nc3)nc(N3CC(C)C(CN)C3)c12 (centres unmarked) [Compound 4.087]
1,≤0.5,CNc1cc(F)cc2c1[nH]c1nc(Oc3cnc(C)nc3)nc(N3CCCC(C)(N)C3)c12 (centres unmarked) [Compound 4.088]
1,≤0.5,CNc1cc(F)cc2c1[nH]c1nc(Oc3cnc(C)nc3)nc(N3C4CCC3CC(N)C4)c12 (centres unmarked) [Compound 4.091]
≤0.5,≤0.5,CNc1cc(F)cc2c1[nH]c1nc(Oc3cnc(C)nc3)nc(N3CC4CCNC4C3)c12 (centres unmarked) [Compound 4.094]
2,≤0.5,CNc1cc(F)cc2c1[nH]c1nc(Oc3cnc(C)nc3)nc(N3C[C@@H]4C(N)CC(C)(C)[C@@H]4C3)c12 (some centres unmarked) [Compound 4.097]
1,≤0.5,CNc1cc(F)cc2c1[nH]c1nc(Oc3cnc(C)nc3)nc(N3CC4CC4(CN)C3)c12 (centres unmarked) [Compound 4.098]
4,≤0.5,CNc1cc(F)cc2c1[nH]c1nc(Oc3cnc(C)nc3)nc(N3CC4CCC(N)C4(C)C3)c12 (centres unmarked) [Compound 4.099]
≤0.5,≤0.5,CNc1cc(F)cc2c1[nH]c1nc(Oc3cnc(C)nc3)nc(N3CC4(CCC4N)C3)c12 (centres unmarked) [Compound 4.100]
≤0.5,≤0.5,CNc1cc(F)cc2c1[nH]c1nc(Oc3cnc(C)nc3)nc(N3CC4CC(N)CC4C3)c12 (centres unmarked) [Compound 4.104]
2,≤0.5,CNc1cc(F)cc2c1[nH]c1nc(Oc3cnc(C)nc3)nc(N3CC4C(CN)C4C3)c12 (centres unmarked) [Compound 4.106]
>16,>16,CNc1cc(F)cc2c1[nH]c1nc(Oc3cnc(C)nc3)nc(N3CCC4(CC3)NC(=O)NC4=O)c12 [Compound 4.107]
1,≤0.5,CNc1cc(F)cc2c1[nH]c1nc(Oc3cnc(C)nc3)nc(N3CC4CCC(CN)C4C3)c12 (centres unmarked) [Compound 4.112]
2,≤0.5,CNc1cc(F)cc2c1[nH]c1nc(Oc3cnc(C)nc3)nc(N3CC4NCCOC4C3)c12 (centres unmarked) [Compound 4.114]
